Reference: US9457033B2, “Steroid alkaloids and uses thereof as antimicrobial agents against electron transport-deficient microbes and as potentiators for antimicrobial agents against pathogenic bacteria” (priority 2011, dated 2016)
Values after ≈ are worked out from the molar mass of the structure shown. Like-named read-outs stand apart in the source and are kept apart here.

Assays:
[1] = system: S. aureus SCV strain CF6A-S; assay: microbe, parasite or virus in culture; format: cell-based; conditions: Staphylococcus aureus
[2] = system: S. saprophyticus ATCC 15305; assay: MIC, microdilution, with or without tomatidine; conditions: for MIC: Staphylococcus saprophyticus
[3] = system: S. aureus SCV NewbouldΔhemB; assay: microbe, parasite or virus in culture; format: cell-based; conditions: Staphylococcus aureus, 24 h, read-out: Diameter of inhibition zone
[4] = system: S. aureus SCV CF07S; assay: microbe, parasite or virus in culture; format: cell-based; conditions: Staphylococcus aureus, SCVCF07S; Tomatidine (50 μg); menadione auxotrophy; 24 hours at 37° C. with O2; DMSO control 0; read-out: Diameter of inhibition zone
[5] = system: S. aureus SCV CF41A-S; assay: microbe, parasite or virus in culture; format: cell-based; conditions: Staphylococcus aureus, SCVCF41AS, 24 h, read-out: Diameter of inhibition zone
[6] = system: normal S. aureus strain CF07-L; assay: Broth growth with HQNO and/or tomatidine, visually evaluated (FIG. 2); format: cell-based, Staphylococcus aureus; conditions: combination of HQNO (20 μg/ml) and tomatidine (8 μg/ml), 48 h
Procedure: The MICs of tomatidine, tomatine and control antibiotics (gentamicin, vancomycin, erythromycin, ciprofloxacin and oxacillin) were determined against the normal strains ATCC 29213 and CF07-L as well as against the SCV strain CF07-S in the presence of 20 μg HQNO/ml.

[7] = system: SCV NewbouldΔhemB; assay: Tomatidine susceptibility with supplemental hemin, spotted on agar (FIG. 1A); format: cell-based, Staphylococcus aureus; conditions: in the presence of supplemental hemin
Procedure: (§1) Normal (Newbould, CF07-L and CF1A-L), and SCV (NewbouldΔhemB (in the presence and absence of hemin), CF07-S (in the presence and absence of menadione) and CF1D-S) S. aureus strains were treated with various concentrations of tomatidine (4, 2, 1, 0.5, 0.25, 0.12 and 0.06 μg/ml) for 48 h in the Brain Hearth Infusion (BHI) medium at 35° C. and 10 μl samples were thereafter spotted on agar plated which were further incubated for 48 h before a picture was taken.

[8] = system: SCV CF07-S; assay: Tomatidine susceptibility with supplemental menadione, spotted on agar (FIG. 1A); format: cell-based, Staphylococcus aureus; conditions: in the presence of supplemental menadione
Procedure: as §1

[9] = system: protein, DNA, RNA and cell wall peptidoglycan biosynthesis in ATCC 29213; assay: Macromolecular biosynthesis assay, incorporation of radiolabeled precursors; format: cell-based, Staphylococcus aureus
[10] = system: SCV strain CF07-S in shCFTR cells; assay: Intracellular infection of polarized CF airway epithelial cells (shCFTR); format: cell-based, Staphylococcus aureus; conditions: 1.25 and 12.5 μg/ml of tomatidine; 48 h post-internalization; FIG. 4B
[11] = system: S. aureus ATCC 29213 alone; assay: Viability in mono-culture, CAMHB; format: cell-based, Staphylococcus aureus; conditions: SA alone + TO at 8 μg/ml
Description: Bacteria were sampled, serially diluted and plated on tryptic soy agar for CFU determinations. […] Mannitol-salt agar plates were used to selectively evaluate S. aureus CFU when in co-culture with P. aeruginosa.

[12] = system: Bacillus cereus ATCC 11778; assay: Agar diffusion method, zone of inhibition; format: cell-based; conditions: ATCC11778, Tomatidine (35 μg), 24 hours at 35° C., DMSO 0, read-out: Diameter of inhibition zone
Procedure: (§2) The effect of tomatidine on the growth of Bacillus subtilis strains ATCC 6633 and ATCC 9372, Bacillus cereus strain ATCC 11778 and Listeria monocytogenes strain ATCC 13932 was tested by an agar diffusion method. Bacillus spp. strains and Listeria monocytogenes were spread on the surface of Mueller-Hinton agar and Mueller-Hinton supplemented with 5% sheep blood, respectively. 35 μg of tomatidine diluted in DMSO or DMSO alone were added to wells for diffusion and plates were incubated for 24 hours at 35° C. The diameters of the zones of inhibition around the wells (for the DMSO control and for the tomatidine well) were measured and reported in mm in TABLE 12 below.

[13] = system: Bacillus subtilis ATCC 6633; assay: Agar diffusion method, zone of inhibition; format: cell-based; conditions: ATCC6633, Tomatidine (35 μg), 24 hours at 35° C., DMSO 5, read-out: Diameter of inhibition zone
Procedure: as §2

[14] = system: Bacillus subtilis ATCC 9372; assay: Agar diffusion method, zone of inhibition; format: cell-based; conditions: ATCC9372, Tomatidine (35 μg), 24 hours at 35° C., DMSO 0, read-out: Diameter of inhibition zone
Procedure: as §2

[15] = system: Listeria monocytogenes ATCC 13932; assay: Agar diffusion method, zone of inhibition; format: cell-based; conditions: ATCC13932, Tomatidine (35 μg), 24 hours at 35° C., 5% sheep blood, DMSO 0, read-out: Diameter of inhibition zone
Procedure: as §2

[16] = system: S. aureus SCVs (NewbouldΔhemB, CF07-S and CF1D-S); assay: MIC, microdilution in BHI 48 h, summary for SCVs; format: cell-based, Staphylococcus aureus; conditions: Staphylococcus aureus, read-out: MIC against all SCVs
[17] = system: colonies isolated from S. aureus ATCC 29213 cultures exposed to gentamicin; assay: Gentamicin susceptibility of colonies isolated from 24 h-cultures exposed to gentamicin; format: cell-based, Staphylococcus aureus
Procedure: Accordingly, colonies isolated from 24 h-cultures exposed to gentamicin were often normal-growing bacteria with a decreased susceptibility to gentamicin (MIC ranging from 1 to 4 μg/ml) or SCVs (MIC for gentamicin ranging from 4 to 8 μg/ml). […] From these time-kill experiments, isolated colonies obtained from cultures exposed to gentamicin combined or not with 8 μg/ml tomatidine were analyzed for their susceptibility to gentamicin. When ATCC 29213 was exposed to gentamicin alone, the emergence of numerous normal-growing isolates showing decreased susceptibility to gentamicin (MIC ranging from 1 to 4 mg/L) was easily detected.

[18] = system: SCV CF07-S; assay: Broth growth with gentamicin or tomatidine, visually evaluated (FIG. 5B); conditions: gentamicin at 4 μg/ml or tomatidine at 0.12 μg/ml alone, 48 h
[19] = system: heterogeneous population of normal strain CF07-L and SCV CF07-S; assay: Broth growth with gentamicin and tomatidine, visually evaluated (FIG. 5C); conditions: combination of gentamicin at 4 μg/ml and tomatidine at 0.12 μg/ml
[20] = colonies from 24 h-cultures exposed to gentamicin

NC[C@H]1O[C@H](O[C@H]2[C@H](O)[C@@H](O[C@H]3O[C@H](CO)[C@@H](O)[C@H](N)[C@H]3O)[C@H](N)C[C@@H]2N)[C@H](N)C[C@@H]1O [Tobramycin, tobramycin] was tested, and the MIC [1] was over 32 µg/mL, the “Fold (−TO/+TO)” value ([2]; S. saprophyticus ATCC 15305, 8 μg/ml of tomatidine) was 8 fold and the MIC ([2]; ATCC15305, read-out: MIC +TO) was 0.016 µg/mL (≈ 0.0342 µM). It also gave an MIC ([2]; ATCC15305, read-out: MIC −TO) of 0.12 µg/mL (≈ 0.257 µM).

Work on C[C@H]1CC[C@]2(NC1)O[C@H]1C[C@H]3[C@@H]4CC[C@H]5C[C@@H](O)CC[C@]5(C)[C@H]4CC[C@]3(C)[C@H]1[C@@H]2C [Tomatidine, tomatidine] yielded a zone of inhibition at 50 µg/disc [3] of 23.5 mm, a zone of inhibition at 50 µg/disc [4] of 22.5 mm and a zone of inhibition at 50 µg/disc [5] of 21.5 mm. For the same compound, the “growth, visually evaluated” value [6] was “inhibitory activity”, the susceptibility to tomatidine [7] was “abolished” and the susceptibility to tomatidine [8] was “abolished”. For the same compound, the biosynthesis of macromolecules ([9]; in the presence of 20 μg HQNO/ml, all tested concentrations above 0.12 μg/ml, FIG. 3C) was “decreased the biosynthesis of all macromolecules”, the synthesis of macromolecules ([9]; tomatidine up to 125 μg/ml, no HQNO, vs DMSO-treated control, FIG. 3B) was “did not alter the synthesis of any macromolecule” and the “intracellular SCVs CF07-S vs DMSO-treated control cells” value [10] was “significantly less”. The “Viability of S. aureus” value ([11]; 0 h) was 5.1 ± 0.4 Log10 CFU/ml, the “Viability of S. aureus” value ([11]; 24 h) was 9.64 ± 0.08 Log10 CFU/ml and the zone of inhibition at 35 µg/disc [12] was 21.5 mm. The zone of inhibition at 35 µg/disc [13] was 25.5 mm, the zone of inhibition at 35 µg/disc [14] was 25.5 mm and the zone of inhibition at 35 µg/disc [15] was 12.5 mm. For the same compound, the MIC [16] was 0.12 µg/mL (≈ 0.289 µM).

For gentamicin, the “MIC of normal-growing isolates showing decreased susceptibility to gentamicin” value ([17]; ATCC 29213 exposed to gentamicin alone) was 1 to 4 µg/mL, the “MIC for gentamicin of SCVs” value [17, 20] was 4 to 8 µg/mL and the “MIC for gentamicin of normal-growing bacteria with decreased susceptibility” value [17, 20] was 1 to 4 µg/mL. The “growth, visually evaluated” value [18] was “does not inhibit the growth” and the “growth, visually evaluated” value [19] was “inhibits the growth”.
